According to ChEMBL document CHEMBL1201862, “PubChem BioAssay data set” (2004):
“And” between values parts separate entries of the source, which are not always exact repeats. Equal entries are not always repeated. Structures can show the parent of a compound that is named as a salt.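 The compound was tested at five concentrations on cells cultured in 96-well plates, with a 48-hour exposure period. Here, GI50 denotes the concentration required for 50% inhibition of growth.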 The source made the active and inactive calls. Cut-off read from the data, not from the text of the source: active = GI50 up to about 1.1 µM and inactive = higher.

What was measured:
Experiment in all cases: NCI tumour cell line growth inhibition, 48 h
[1] = system: K562
[2] = system: SF-295
[3] = system: OVCAR-5
[4] = system: CCRF-CEM
[5] = system: U-251
[6] = system: NCI-H460
[7] = system: ACHN
[8] = system: KM12
[9] = system: 786-0
[10] = system: T47D
[11] = system: BT-549
[12] = system: SR
[13] = system: SK-MEL-5
[14] = system: UO-31
[15] = system: NCI-H226
[16] = system: SF-268
[17] = system: IGROV-1
[18] = system: SK-OV-3
[19] = system: Hs-578T
[20] = system: A549

Row | Structure (SMILES) | GI50 [1] | GI50 [2] | GI50 [3] | GI50 [4] | GI50 [5] | GI50 [6] | GI50 [7] | GI50 [8] | GI50 [9] | GI50 [10] | GI50 [11] | GI50 [12] | GI50 [13] | GI50 [14] | GI50 [15] | GI50 [16] | GI50 [17] | GI50 [18] | GI50 [19] | GI50 [20]
1 | COc1ccc(C2CC(=O)CC(c3ccc(OC)cc3)C23C(=O)NC(=O)NC3=O)cc1 (centres undefined) | 37.9 µM (inactive) | 38 µM (inactive) | 56.4 µM (inactive) | 32.7 µM (inactive) | 57.8 µM (inactive) | 35.8 µM (inactive) | 31.3 µM (inactive) | 25.6 µM (inactive) | 30.5 µM (inactive) | > 10 µM (inactive) | 32.7 µM (inactive) | 30.4 µM (inactive) | 25 µM (inactive) | 31.6 µM (inactive) | 35.2 µM (inactive) | 44.1 µM (inactive) | 26.2 µM (inactive) | – | – | –
2 | O=C(c1ccco1)N(C(=O)N1CCCCC1)c1ccccc1 | > 100 µM (inactive) | – | > 100 µM (inactive) | > 100 µM (inactive) | > 100 µM (inactive) | – | > 100 µM (inactive) | > 100 µM (inactive) | > 100 µM (inactive) | – | > 100 µM (inactive) | – | > 100 µM (inactive) | > 100 µM (inactive) | > 100 µM (inactive) | > 100 µM (inactive) | > 100 µM (inactive) | > 100 µM (inactive) | > 100 µM (inactive) | –
3 | CCOP(=O)(OCC)/C(C#N)=C/c1cnc[nH]1 | > 100 µM (inactive) | > 100 µM (inactive) | > 100 µM (inactive) | > 100 µM (inactive) | > 100 µM (inactive) | > 100 µM (inactive) | > 100 µM (inactive) | > 100 µM (inactive) | > 100 µM (inactive) | – | > 100 µM (inactive) | > 100 µM (inactive) | > 100 µM (inactive) | > 100 µM (inactive) | > 100 µM (inactive) | > 100 µM (inactive) | > 100 µM (inactive) | > 100 µM (inactive) | > 100 µM (inactive) | > 100 µM (inactive)
4 | Cc1c(Cl)ccc2[s+]snc12 | 22.6 µM (inactive) | > 100 µM (inactive) | > 100 µM (inactive) | 23.2 µM (inactive) | 25.3 µM (inactive) | 55 µM (inactive) | 42.2 µM (inactive) | 43.1 µM (inactive) | 19.1 µM (inactive) | – | – | 25.2 µM (inactive) | 21 µM (inactive) | 23.9 µM (inactive) | 68.4 µM (inactive) | 23.8 µM (inactive) | 48.8 µM (inactive) | > 100 µM (inactive) | – | 38.6 µM (inactive)
5 | CN(C)CCOC1(Cc2ccc(F)cc2)CCC(C(C)(C)C)CC1 (centres undefined) | 2.03 µM (inactive) and 2.19 µM (inactive) | 5.75 µM (inactive) and 6.38 µM (inactive) | 7.59 µM (inactive) and 7.85 µM (inactive) | 3.19 µM (inactive) and 2.64 µM (inactive) | 5.28 µM (inactive) and 6.25 µM (inactive) | 3.27 µM (inactive) and 2.23 µM (inactive) | 11 µM (inactive) and 12.9 µM (inactive) | 5.62 µM (inactive) and 5.02 µM (inactive) | 4.92 µM (inactive) and 4.2 µM (inactive) | 4.34 µM (inactive) and 5.09 µM (inactive) | – | 2.63 µM (inactive) and 2.29 µM (inactive) | 1.93 µM (inactive) and 1.74 µM (inactive) | 6.12 µM (inactive) and 4.81 µM (inactive) | 9.38 µM (inactive) and 10.5 µM (inactive) | 12.4 µM (inactive) and 12.9 µM (inactive) | 11.1 µM (inactive) and 11.5 µM (inactive) | 14 µM (inactive) and 15.2 µM (inactive) | 11.7 µM (inactive) and 14 µM (inactive) | 9.77 µM (inactive) and 11.9 µM (inactive)
6 | CC1(C)[C@@H](Cn2cnc3c(Cl)nc(N)nc32)CC[C@@]1(C)CO | > 100 µM (inactive) | > 100 µM (inactive) | > 100 µM (inactive) | 31.6 µM (inactive) | > 100 µM (inactive) | – | > 100 µM (inactive) | > 100 µM (inactive) | > 100 µM (inactive) | > 100 µM (inactive) | – | – | 18.7 µM (inactive) | 3.74 µM (inactive) | 12.7 µM (inactive) | 20.8 µM (inactive) | – | > 100 µM (inactive) | 19.7 µM (inactive) | > 100 µM (inactive)
7 | c1csc(-c2nccc3c2[nH]c2ccccc23)c1 | 25.6 µM (inactive) | 16.1 µM (inactive) | 28.2 µM (inactive) | 21.2 µM (inactive) | 25.4 µM (inactive) | 23.9 µM (inactive) | 24.5 µM (inactive) | 19.5 µM (inactive) | 18.1 µM (inactive) | 11.8 µM (inactive) | – | 21 µM (inactive) | 16.7 µM (inactive) | – | 12 µM (inactive) | 27 µM (inactive) | 18.4 µM (inactive) | 14.2 µM (inactive) | 46 µM (inactive) | 18.5 µM (inactive)
8 | CC[C@]12CN3CCc4c([nH]c5ccccc45)[C@@](C(=O)OC)(c4cc5c(cc4OC)N(C)[C@H]4[C@@](O)(C(=O)OC)[C@H](OC(C)=O)[C@]6(CC)C=CCN7CC[C@]54[C@@H]76)CC(C3)[C@H]1O2 (some centres undefined) [VINLEUROSINE SULFATE] | < 0.01 µM (active) | 0.0401 µM (active) | 0.804 µM (active) | < 0.019 µM (active) | < 0.0179 µM (active) | < 0.01 µM (active) | 1.33 µM (inactive) | < 0.0276 µM (active) | < 0.01 µM (active) | – | 10.2 µM (inactive) | – | < 0.01 µM (active) | 5.57 µM (inactive) | 0.221 µM (active) | 1.02 µM (active) | 0.441 µM (active) | 0.12 µM (active) | 0.108 µM (active) | 0.394 µM (active)
